Key:
[1] = for HR, melanoma specific survival adjusted for Breslow thickness / HR, melanoma specific survival adjusted for Breslow thickness and lymph gland metastases: hazard ratio versus non-users; for effect on melanoma survival: regardless of age, gender and tumor status; for survivability, comparative results adjusted for Breslow thickness: tables 1 and 2, adjusted for Breslow thickness
Experimental: (§1) Both peri- and post-diagnostic antihistamine use was analyzed, using Cox regression models, as well as different subgroups of patients with regard to age, gender (as a proxy for sex) and tumor status.
(§2) Our study population included all of the 35,905 individuals with newly diagnosed melanoma from 2005 through 2014, identified using the Swedish National Quality Register for Malignant Skin Melanoma (hereafter referred to as the Melanoma Register), a database comprising all cases of malignant melanoma of the skin in Sweden since 1990. Melanoma in situ is not included in this register, nor melanoma in any other site than the skin. It has a coverage of approximately 98%, and in addition to variables such as age and TNM status, the Melanoma Register also includes information on the histopathology of the tumors, such as Breslow and Clark measures. Use of the six major antihistamines was established using the Swedish Prescribed Drug Register, a record of all dispensed prescribed pharmaceuticals in Sweden since July 1st 2005. To be included in the registry at least 2 weeks of prescription is required. Prescription free antihistamine use, non-dispensed doses, or use of other, less common, types of antihistamines is here considered non-use. Causes of death were obtained from the Swedish Cause of Death Register, a database where all deaths have been recorded since 1952. Data was pseudo-anonymized and the study was approved by the Regional Ethics Board.
(§3) For the cumulative post-diagnostic antihistamine use analysis, mortality rates for antihistamine users were compared to those of non-users through a Cox regression model allowing for time varying covariates, and survival time was measured in years since diagnosis. This allowed for a single individual to provide data as both a non-user and user of different antihistamines.
(§4) The impact of the cumulative DDDs was assessed after log transformation of the DDDs plus one3. Cox regression analyses were stratified for patient age at diagnosis, tumor size and node status (T and N status, respectively). A lag-time analysis was performed as described by Tamim et al. and Richardson et al. Statistical analyses were performed using R version XXX6.

[2] = Nation-wide register-based study, Cox regression: overall mortality/survival by antihistamine use; format: in vivo, human; settings: hazard ratio versus non-users
Experimental: as §1, §2, §3, §4

[3] = Risk of developing a second (new primary) melanoma after the first melanoma diagnosis; format: in vivo, human; settings: for HR, risk of a new primary melanoma: use longer than 3 years after the first diagnosis, adjusted for age and sex, p<0.05
[4] = somnolence, tachycardia and headache reported; cited from earlier work
[5] = use 6 months before and after diagnosis; adjusted for Breslow, sentinel lymph node status and education level

Structure (SMILES) | HR, melanoma specific survival adjusted for Breslow thickness [1] | HR, melanoma specific survival adjusted for Breslow thickness and lymph gland metastases [1] | effect on melanoma survival [1] | HR, overall survival adjusted for Breslow thickness [2] | HR, overall survival adjusted for Breslow thickness and lymph gland metastases [2] | risk of a new primary melanoma, follow up counted from day 1 [3] | HR, risk of a new primary melanoma [3] | symptoms in connection with overdoses [4] | HR, peridiagnostic use, melanoma mortality [5] | survivability, comparative results adjusted for Breslow thickness [1] | melanoma specific mortality HR, Men <65 ([1]; Men <65, 95% CI in brackets) | melanoma specific mortality HR, Men >65 ([1]; Men >65, 95% CI in brackets) | melanoma specific mortality HR, Women <65 ([1]; Women <65, 95% CI in brackets) | melanoma specific mortality HR, Women >65 ([1]; Women >65, 95% CI in brackets) | melanoma specific mortality HR, looking at DDD:s ([1]; by defined daily doses (DDDs), 95% CI in brackets)
CCOC(=O)N1CCC(=C2c3ccc(Cl)cc3CCc3cccnc32)CC1 [Loratadine, loratadine] | 0.858 | 0.851 | consistently beneficial effect | 0.962 | 0.964 | No significant difference | 0.88 | increase the incidence of anticholinergic symptoms | 0.534 |  |  |  |  |  | 
CN1CCC[C@@H]1CCO[C@](C)(c1ccccc1)c1ccc(Cl)cc1 [Clemastine, clemastine] | 1.027 | 0.993 | consistently negative effect | 1.114 | 1.101 |  |  |  | 1.005 | lack of improval of survivability |  |  |  |  | 
O=C(O)COCCN1CCN(C(c2ccccc2)c2ccc(Cl)cc2)CC1 (centres unmarked) [Cetirizine, cetirizine] | 1.006 | 1.014 |  | 1 | 0.991 |  |  |  | 0.962 | lack of improval of survivability |  |  |  |  | 
CC(C)(C)c1ccc(C(=O)CCCN2CCC(OC(c3ccccc3)c3ccccc3)CC2)cc1 [Ebastine, ebastine] | 1.138 | 1.03 |  | 1.117 | 1.076 |  |  |  | 1.032 | lack of improval of survivability |  |  |  |  | 
Clc1ccc2c(c1)CCc1cccnc1C2=C1CCNCC1 [Desloratadine, desloratadine] | 0.883 | 0.889 | consistently beneficial effect | 0.95 | 0.953 | No significant difference | 0.88 |  | 0.569 |  | 0.69 (0.37-1.29) | 0.77 (0.45-1.33) | 0.57 (0.25-1.28) | 0.80 (0.44-1.45) | 0.93 (0.87-1.00)
CC(C)(C(=O)O)c1ccc(C(O)CCCN2CCC(C(O)(c3ccccc3)c3ccccc3)CC2)cc1 (centres unmarked) [Fexofenadine, fexofenadine] | 0.979 | 0.935 |  | 1.011 | 1.013 |  |  |  | 0.901 | lack of improval of survivability |  |  |  |  | 
